This passage reports EC50 and Emax results from patent US11667667B2, “Steroid derivative FXR agonist” (Chia Tai Tianqing Pharmaceutical Group Co., Ltd., priority 2016, dated 2023).

For this experiment, the target named is T1, Glutathione-S-transferase-labeled FXR human protein (Homo sapiens, UniProt Q96RI1).
T1 construct: purchased Invitrogen
T1 sequence (Q96RI1 1-486): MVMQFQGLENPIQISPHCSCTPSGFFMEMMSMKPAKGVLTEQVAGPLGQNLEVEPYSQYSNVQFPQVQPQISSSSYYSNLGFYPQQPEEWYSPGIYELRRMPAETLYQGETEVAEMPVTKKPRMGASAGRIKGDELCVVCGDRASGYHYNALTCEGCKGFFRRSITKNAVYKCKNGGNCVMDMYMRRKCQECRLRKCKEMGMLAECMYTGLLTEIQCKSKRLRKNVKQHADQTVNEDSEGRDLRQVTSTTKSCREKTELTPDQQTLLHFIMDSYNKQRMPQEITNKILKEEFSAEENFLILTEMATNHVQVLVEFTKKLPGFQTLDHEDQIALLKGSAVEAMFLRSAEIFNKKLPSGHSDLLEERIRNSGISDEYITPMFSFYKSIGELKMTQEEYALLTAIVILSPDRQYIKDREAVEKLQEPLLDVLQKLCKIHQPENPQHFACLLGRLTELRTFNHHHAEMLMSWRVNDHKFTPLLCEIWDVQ
The experiment in a line: FXR biochemical experiment (AlphaScreen, coactivator recruitment). Conditions: for EC50: AlphaScreen, GST-FXR human protein + biotin-labeled steroid receptor coactivator, read-out: FXR enzyme activity EC50; for Emax: ratio of highest signal of the compound to that of the reference compound, read-out: FXR enzyme activity Efficacy. The protocol: FXR Biochemical Experiment Experimental Purpose: The activation effect of the compound on FXR binding reaction was detected by AlphaScreen. […] Protein: Glutathione-S-transferase-labeled FXR human protein (Invitrogen) 2. Co-activator: Biotin-labeled steroid receptor coactivator (Anaspec) 3. […] Compound Dilution: The compound to be tested was prepared as a 40 μM DMSO solution, and then diluted 3-fold to 10 concentration points. The reference compound was prepared as a 400 μM DMSO solution, and then diluted 1.5-fold to 10 concentration points. The diluted DMSO solution was added to the wells of a 384-well plate in a volume of 150 nL per well. 2. […] 4. […] The operation during the experimental process was protected from light. The incubation was performed for 1 hour at room temperature. 5. […] The operation during the experimental process was protected from light. The incubation was performed for 1 hour at room temperature. 6. EC50 test: Envision was used with excitation at 680 nm to read the […] signals at 520-620 nm. 7. Analytical data: The data were analyzed via using Prism 5.0, and the EC50 values of the activation effects of the compounds were calculated.

Each structure is given as a SMILES string.

As to `CC[C@H]1[C@@H](O)[C@@H]2[C@H](CC[C@]3(C)[C@@H]([C@H](C)CCN4CCC[C@@H]4C(=O)O)CC[C@@H]23)[C@@]2(C)CC[C@@H](O)C[C@@H]12` [Example 2], the EC50 is 1460 nM and the Emax was 114%. On to `CC[C@H]1[C@@H](O)[C@@H]2[C@H](CC[C@]3(C)[C@@H]([C@H](C)CCN4CCC[C@H]4C(=O)O)CC[C@@H]23)[C@@]2(C)CC[C@@H](O)C[C@@H]12` [Example 3], for which the EC50 turned out to be 2620 nM and the Emax was determined as 106%. Turning to `CC[C@H]1[C@@H](O)[C@@H]2[C@H](CC[C@]3(C)[C@@H]([C@H](C)CCOc4ccccc4C(=O)O)CC[C@@H]23)[C@@]2(C)CC[C@@H](O)C[C@@H]12` [Example 8], the Emax worked out at 264%. Turning to `CC[C@H]1[C@@H](O)[C@@H]2[C@H](CC[C@]3(C)[C@@H]([C@H](C)CCOc4cnc(C(=O)O)nc4)CC[C@@H]23)[C@@]2(C)CC[C@@H](O)C[C@@H]12` [Example 12], the concentration giving a half-maximal response (EC50) is 70 nM and the Emax was found to be 240%.

For the molecule `CC[C@H]1[C@@H](O)[C@@H]2[C@H](CC[C@]3(C)[C@@H]([C@H](C)CCOc4cnccc4C(=O)O)CC[C@@H]23)[C@@]2(C)CC[C@@H](O)C[C@@H]12` [Example 13], the EC50 came out at 390 nM and the Emax was 270%. As to `CC[C@H]1[C@@H](OC)[C@@H]2[C@H](CC[C@]3(C)[C@@H]([C@H](C)CCOCC45CC(C(=O)O)(C4)C5)CC[C@@H]23)[C@@]2(C)CC[C@@H](O)C[C@@H]12` [Example 14], the EC50 was 730 nM and the Emax was 195%. For the molecule `CC[C@H]1[C@@H](O)[C@@H]2[C@H](CC[C@]3(C)[C@@H]([C@H](C)CCOc4cccnc4C(=O)O)CC[C@@H]23)[C@@]2(C)CC[C@@H](O)C[C@@H]12` [Example 16], the EC50 is 310 nM and the Emax was 247%. For the molecule `CC[C@H]1[C@@H](O)[C@@H]2[C@H](CC[C@]3(C)[C@@H]([C@H](C)CCCOc4ccc(C(=O)O)cn4)CC[C@@H]23)[C@@]2(C)CC[C@@H](O)C[C@@H]12` [Example 18], the EC50 stood at 70 nM and the Emax came out at 187%. The like results for `CC[C@H]1[C@@H](O)[C@@H]2[C@H](CC[C@]3(C)[C@@H]([C@H](C)/C=C/c4cccc(C(=O)O)c4)CC[C@@H]23)[C@@]2(C)CC[C@@H](O)C[C@@H]12` [Example 20] were, in that order, 60 nM and 287%. As to `CC[C@H]1[C@@H](O)[C@@H]2[C@H](CC[C@]3(C)[C@@H]([C@H](C)CCOc4ncc(C(=O)O)cc4F)CC[C@@H]23)[C@@]2(C)CC[C@@H](O)C[C@@H]12` [Example 24], the Emax was determined as 138%.

As for `CC[C@H]1[C@@H](O)[C@@H]2[C@H](CC[C@]3(C)[C@@H]([C@H](C)CCOc4cccc(C(=O)O)n4)CC[C@@H]23)[C@@]2(C)CC[C@@H](O)C[C@@H]12` [Example 25], the EC50 was 11 nM and the Emax stood at 233%. Turning to `CC[C@H]1[C@@H](O)[C@@H]2[C@H](CC[C@]3(C)[C@@H]([C@H](C)CCOc4ccc(C(=O)NS(C)(=O)=O)cn4)CC[C@@H]23)[C@@]2(C)CC[C@@H](O)C[C@@H]12` [Example 27], the EC50 came to 6 nM and the Emax is 212%.

Regarding `CC[C@H]1[C@@H](O)[C@@H]2[C@H](CC[C@]3(C)[C@@H]([C@H](C)CCOc4ccc(C(=O)NS(=O)(=O)C5CC5)cn4)CC[C@@H]23)[C@@]2(C)CC[C@@H](O)C[C@@H]12` [Example 28], the EC50 was 7 nM and the Emax is 219%. Taken in the same sequence, the figures for `CC[C@H]1[C@@H](O)[C@@H]2[C@H](CC[C@]3(C)[C@@H]([C@H](C)CCOc4ccc(C(=O)NS(=O)(=O)C(C)(C)C)cn4)CC[C@@H]23)[C@@]2(C)CC[C@@H](O)C[C@@H]12` [Example 29] were 12 nM and 190%. Consider `CC[C@H]1[C@@H](O)[C@@H]2[C@H](CC[C@]3(C)[C@@H]([C@H](C)CCOc4ccc(C(=O)NS(=O)(=O)C(C)C)cn4)CC[C@@H]23)[C@@]2(C)CC[C@@H](O)C[C@@H]12` [Example 30], for which the EC50 is 56 nM and the Emax worked out at 150%. On to `CC[C@H]1[C@@H](O)[C@@H]2[C@H](CC[C@]3(C)[C@@H]([C@H](C)CCOc4ccc(C(=O)NS(=O)(=O)c5ccccc5)cn4)CC[C@@H]23)[C@@]2(C)CC[C@@H](O)C[C@@H]12` [Example 31], for which the EC50 was 27 nM and the Emax was found to be 204%. For the molecule `CC[C@H]1[C@@H](O)[C@@H]2[C@H](CC[C@]3(C)[C@@H]([C@H](C)CCOc4ccc(C(=O)Nc5ccccc5)cn4)CC[C@@H]23)[C@@]2(C)CC[C@@H](O)C[C@@H]12` [Example 32], the EC50 stood at 650 nM and the Emax was found to be 140%. Take `CC[C@H]1[C@@H](O)[C@@H]2[C@H](CC[C@]3(C)[C@@H]([C@H](C)CCOc4ccc(C(=O)NC)cn4)CC[C@@H]23)[C@@]2(C)CC[C@@H](O)C[C@@H]12` [Example 33]: the EC50 worked out at 141 nM and the Emax came to 194%.

For the molecule `CC[C@H]1[C@@H](O)[C@@H]2[C@H](CC[C@]3(C)[C@@H]([C@H](C)CCOc4ccc(C(=O)NC5CC5)cn4)CC[C@@H]23)[C@@]2(C)CC[C@@H](O)C[C@@H]12` [Example 34], the 50% effective concentration (EC50) turned out to be 93 nM and the Emax came to 191%. With `CC[C@H]1[C@@H](O)[C@@H]2[C@H](CC[C@]3(C)[C@@H]([C@H](C)CCOc4ccc(C(=O)NCCS(=O)(=O)O)cn4)CC[C@@H]23)[C@@]2(C)CC[C@@H](O)C[C@@H]12` [Example 38], the 50% effective concentration (EC50) worked out at 20 nM and the Emax was 210%. Turning to `CC[C@H]1[C@@H](O)[C@@H]2[C@H](CC[C@]3(C)[C@@H]([C@H](C)CCOc4ccc(C(=O)NCC(=O)O)cn4)CC[C@@H]23)[C@@]2(C)CC[C@@H](O)C[C@@H]12` [Example 39], the concentration giving a half-maximal response (EC50) came out at 20 nM and the Emax worked out at 205%. Turning to `CC[C@H]1[C@@H](O)[C@@H]2[C@H](CC[C@]3(C)[C@@H]([C@H](C)CCCOc4ncc(C(=O)O)cc4Cl)CC[C@@H]23)[C@@]2(C)CC[C@@H](O)C[C@@H]12` [Example 40], the EC50 was determined as 45 nM and the Emax came to 197%. Taken in the same sequence, the figures for `CC[C@H]1[C@@H](O)[C@@H]2[C@H](CC[C@]3(C)[C@@H]([C@H](C)CCOc4ccnc(C(=O)O)c4)CC[C@@H]23)[C@@]2(C)CC[C@@H](O)C[C@@H]12` [Example 41] were 80 nM and 127%. `CC[C@H]1[C@@H](O)[C@@H]2[C@H](CC[C@]3(C)[C@@H]([C@H](C)CC(=O)Nc4cncc(C(=O)O)c4)CC[C@@H]23)[C@@]2(C)CC[C@@H](O)C[C@@H]12` [Example 42]: the EC50 is 1430 nM and the Emax was determined as 121%. Regarding `CC[C@H]1[C@@H](O)[C@@H]2[C@H](CC[C@]3(C)[C@@H]([C@H](C)CCNc4cncc(C(=O)O)c4)CC[C@@H]23)[C@@]2(C)CC[C@@H](O)C[C@@H]12` [Example 43], the EC50 turned out to be 370 nM and the Emax worked out at 193%. Consider `CC[C@H]1[C@@H](O)[C@@H]2[C@H](CC[C@]3(C)[C@@H]([C@H](C)CCOc4ccc(C(=O)OC)cn4)CC[C@@H]23)[C@@]2(C)CC[C@@H](O)C[C@@H]12` [Example 44], for which the EC50 came to 330 nM and the Emax is 140%.

By EC50 is commonly meant the concentration that produces a half-maximal response.
